Experimental findings from US6703397B2, “Pyrimidinyl methyl indole derivatives with antibacterial activity” (Basilea Pharmaceutica AG, priority 2000, dated 2004) are described below.

Experiment [1] deals with Streptococcus pneumoniae ATCC 49619. Description: MIC against Streptococcus pneumoniae ATCC 49619 (trimethoprim- and penicillin-susceptible reference strain). To be noted: ATCC49619; Streptococcus pneumoniae ATCC 49619, trimethoprim- and penicillin-susceptible; read-out: Spn 49619 MIC. It counts as cell-based. As for the experimental part:
The following Tables 1 and 2 contain inhibitory concentrations determined in the above test for representative members of the class of compound defined by formula I. The following microorganisms were tested: Col. 1: […]

Experiment [2] deals with Streptococcus pneumoniae 1/1. Description: MIC against Streptococcus pneumoniae 1/1 (trimethoprim- and penicillin-resistant clinical isolate, serotype 6). The experiment is classed as cell-based. The note with it: Streptococcus pneumoniae 1/1, trimethoprim- and penicillin-resistant, serotype 6; read-out: Spn 1/1 MIC. As for the experimental part: The following Tables 1 and 2 contain inhibitory concentrations determined in the above test for representative members of the class of compound defined by formula I. The following microorganisms were tested: […]
Col. 2: MIC Spn1/1; μg/ml (Streptococcus pneumoniae 1/1, Trimethoprim- and Penicillin-resistant, Serotype 6; clinical isolate, stored at −80° C.). Lit.: H. Locher et al., Can. J. Infect. Dis. 6: Suppl. C, p 469C.

The target of experiment [3] is purified DHFR of strain Spn1/1 (Streptococcus pneumoniae serotype 4, UniProt Q54801, E20D/I100L/L135F/P70S/Q81H). Nature of the experiment: biochemical. The text has this:
Col. 3: DHFR Spn1/1; μM)—the IC50-values in μM against the purified DHFR of the above strain Spn1/1; of Streptococcus pneumoniae.

In brackets after ≈: the same amount, converted by molar mass.

Sequence of purified DHFR of strain Spn1/1 (Q54801 whole entry E20D/P70S/Q81H/I100L/L135F): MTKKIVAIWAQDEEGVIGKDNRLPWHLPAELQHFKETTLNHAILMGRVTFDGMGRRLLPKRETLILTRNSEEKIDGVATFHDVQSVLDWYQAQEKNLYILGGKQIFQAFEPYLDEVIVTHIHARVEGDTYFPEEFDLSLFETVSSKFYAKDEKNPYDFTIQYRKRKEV

For the molecule `CCn1cc(C)c2c(OS(=O)(=O)C(C)C)cc(Cc3cnc(N)nc3N)cc21` [Example 12a, Propane-2-sulfonic acid 6-(2,4-diamino-pyrimidin-5-ylmethyl)-1-ethyl-3-methyl-1H-indol-4-yl ester], the values for the MIC in experiment [1] and in experiment [2] were 0.125 µg/mL (≈ 0.31 µM) and 4 µg/mL (≈ 9.91 µM), respectively. This molecule also registered an IC50 in experiment [3] of 15 nM.

Turning to `CCn1cc(CN2CCOCC2)c2c(OS(=O)(=O)C(C)C)cc(Cc3cnc(N)nc3N)cc21` [Example 10b, Propane-2-sulfonic acid 6-(2,4-diamino-pyrimidin-5-ylmethyl)-1-ethyl-3-morpholino-4-ylmethyl-1H-indol-4-ester], the MIC stood at 0.5 µg/mL (≈ 1.02 µM) in experiment [1] and 8 µg/mL (≈ 16.4 µM) in experiment [2]. For the same molecule, the IC50 in experiment [3] was 110 nM.

On to `CCn1ccc2c(OCC(C)C)cc(Cc3cnc(N)nc3N)cc21` [Example 7g, 5-(1-Ethyl-4-isobutoxy-1H-indol-6-ylmethyl)-pyrimidine-2,4-diamine], for which the MIC in experiment [1] worked out at 0.5 µg/mL (≈ 1.47 µM); in experiment [2], 2 µg/mL (≈ 5.89 µM). The same molecule displayed an IC50 in experiment [3] of 29 nM.

Take `Cn1ccc2c(OCC3CC3)cc(Cc3cnc(N)nc3N)cc21` [Example 5a, 5-(4-Cyclopropylmethoxy-1-methyl-1H-indol-6-ylmethyl)-pyrimidine-2,4-diamine]: the MIC in experiment [1] turned out to be 0.25 µg/mL (≈ 0.773 µM); in experiment [2] it was 4 µg/mL (≈ 12.4 µM). In addition, the IC50 in experiment [3] is 110 nM.

`CCn1ccc2c(OC)cc(Cc3cnc(N)nc3N)cc21` [Example 7b, 5-(1-Ethyl-4-methoxy-1H-indol-6-ylmethyl)-pyrimidine-2,4-diamine]: the MIC in experiment [1] worked out at 0.5 µg/mL (≈ 1.68 µM); in experiment [2], 8 µg/mL (≈ 26.9 µM). In experiment [3], this molecule registered an IC50 of 410 nM.

Consider `CCn1ccc2c(OC(C)C)cc(Cc3cnc(N)nc3N)cc21` [Example 7c, 5-(1-Ethyl-4-isopropoxy-1H-indol-6-ylmethyl)-pyrimidine-2,4-diamine], for which the figures for the MIC in experiment [1] and in experiment [2] were 0.25 µg/mL (≈ 0.768 µM) and 4 µg/mL (≈ 12.3 µM), respectively. Further, in experiment [3], the IC50 stood at 140 nM.

Turning to `CCn1ccc2c(OCC3CCC3)cc(Cc3cnc(N)nc3N)cc21` [Example 7f, 5-(4-Cyclobutylmethoxy-1-ethyl-1H-indol-6-ylmethyl)-pyrimidine-2,4-diamine], the MIC in experiment [1] is 0.5 µg/mL (≈ 1.42 µM); in experiment [2], 2 µg/mL (≈ 5.69 µM). In addition, the IC50 in experiment [3] is 41 nM.

With `C#CCOc1cc(Cc2cnc(N)nc2N)cc2c1ccn2CC` [Example 7d, 5-(1-Ethyl-4-prop-2-ynyloxy-1H-indol-6-ylmethyl)-pyrimidine-2,4-diamine], the MIC came to 0.125 µg/mL (≈ 0.389 µM) in experiment [1] and 8 µg/mL (≈ 24.9 µM) in experiment [2]. In experiment [3], this molecule yielded an IC50 of 71 nM.

On to `CCn1ccc2c(OCC3CCCO3)cc(Cc3cnc(N)nc3N)cc21` (racemic) [Example 7i, rac-5-[1-Ethyl-4-(tetrahydro-furan-2-ylmethoxy)-1H-indol-6-ylmethyl]-pyrimidine-2,4-diamine], for which the figures for the MIC in experiment [1] and in experiment [2] were 0.5 µg/mL (≈ 1.36 µM) and 8 µg/mL (≈ 21.8 µM), respectively. Also, the IC50 in experiment [3] is 13 nM.

On to `CCn1ccc2c(OS(=O)(=O)CC3CC3)cc(Cc3cnc(N)nc3N)cc21` [Example 8b, Cyclopropyl-methanesulfonic acid 6-(2,4-diamino-pyrimidin-5-ylmethyl)-1-ethyl-1H-indol-4-yl ester], for which the MIC is at most 0.015 µg/mL in experiment [1] and 1 µg/mL (≈ 2.49 µM) in experiment [2]. In experiment [3], the half-maximal inhibitory concentration (IC50) was 1.5 nM.

For the molecule `CCn1ccc2c(OS(=O)(=O)CC(C)C)cc(Cc3cnc(N)nc3N)cc21` [Example 8c, 2-Methyl-propane-1-sulfonic acid 6-(2,4-diamino-pyrimidin-5-ylmethyl)-1-ethyl-1H-indol-4-yl ester], the values for the MIC in experiment [1] and in experiment [2] were at most 0.015 µg/mL and 2 µg/mL (≈ 4.96 µM), respectively. The IC50 in experiment [3] stood at 1.5 nM.

For `CCn1ccc2c(OS(=O)(=O)C(C)C)cc(Cc3cnc(N)nc3N)cc21` [Example 8a, Propane-2-sulfonic acid 6-(2,4-diamino-pyrimidin-5-ylmethyl)-1-ethyl-1H-indol-4-yl ester], the MIC in experiment [1] amounted to 0.03 µg/mL (≈ 0.077 µM); in experiment [2], 1 µg/mL (≈ 2.57 µM). For the same molecule, in experiment [3], the IC50 was found to be 28 nM.

For the molecule `CCC(C)S(=O)(=O)Oc1cc(Cc2cnc(N)nc2N)cc2c1ccn2CC` (racemic) [Example 8d, rac-Butane-2-sulfonic acid 6-(2,4-diamino-pyrimidin-5-ylmethyl)-1-ethyl-1H-indol-4-yl ester], the MIC was found to be 0.03 µg/mL (≈ 0.0743 µM) in experiment [1] and 1 µg/mL (≈ 2.48 µM) in experiment [2]. The molecule further yielded an IC50 in experiment [3] of 1.8 nM.

Consider `CCOc1cc(Cc2cnc(N)nc2N)cc(OCC)c1-n1cccc1` [Epiroprim, reference compound], for which the MIC in experiment [1] is 0.125 µg/mL (≈ 0.354 µM); in experiment [2], 4 µg/mL (≈ 11.3 µM). Besides, in experiment [3], the half-maximal inhibitory concentration (IC50) turned out to be 190 nM.
